Source: ChEMBL document CHEMBL1667745, “Synthesis and antibacterial evaluation of novel clarithromycin derivatives with C-4″ elongated arylalkyl groups against macrolide-resistant strains” (2011)
In brackets after ≈: the same amount, converted by molar mass.

Columns and labels:
Type in all cases: functional
Streptococcus pneumoniae [1] = test: Antimicrobial activity against erythromycin-susceptible Streptococcus pneumoniae ATCC 49619 by broth microdilution method
Streptococcus pneumoniae [2] = test: Antimicrobial activity against erythromycin-resistant Streptococcus pneumoniae B1 expressing the erm gene by broth microdilution method
Streptococcus pneumoniae [3] = test: Antimicrobial activity against erythromycin-resistant Streptococcus pneumoniae A22072 expressing the mef gene by broth microdilution method
Streptococcus pneumoniae [4] = test: Antimicrobial activity against erythromycin-resistant Streptococcus pneumoniae AB11 expressing the erm and mef gene by broth microdilution method
Staphylococcus aureus [5] = test: Antimicrobial activity against erythromycin-susceptible Staphylococcus aureus ATCC 25923 by broth microdilution method
Staphylococcus aureus [6] = test: Antimicrobial activity against penicillin-susceptible Staphylococcus aureus P1 by broth microdilution method
Streptococcus pyogenes [7] = test: Antimicrobial activity against erythromycin-susceptible Streptococcus pyogenes S2 by broth microdilution method
Streptococcus pyogenes [8] = test: Antimicrobial activity against erythromycin-resistant Streptococcus pyogenes R2 by broth microdilution method

| SMILES | MIC (Streptococcus pneumoniae [1]) [µg/mL] | MIC (Streptococcus pneumoniae [2]) [µg/mL] | MIC (Streptococcus pneumoniae [3]) [µg/mL] | MIC (Streptococcus pneumoniae [4]) [µg/mL] | MIC (Staphylococcus aureus [5]) [µg/mL] | MIC (Staphylococcus aureus [6]) [µg/mL] | MIC (Streptococcus pyogenes [7]) [µg/mL] | MIC (Streptococcus pyogenes [8]) [µg/mL] |
| --- | --- | --- | --- | --- | --- | --- | --- | --- |
| CCCNC(=O)CCCNC(=O)O[C@H]1[C@H](C)O[C@@H](O[C@H]2[C@H](C)[C@@H](O[C@@H]3O[C@H](C)C[C@H](N(C)C)[C@H]3O)[C@](C)(OC)C[C@@H](C)C(=O)[C@H](C)[C@@H](O)[C@](C)(O)[C@@H](CC)OC(=O)[C@@H]2C)C[C@@]1(C)OC | 0.03 (≈ 0.0327 µM) | 128 (≈ 139 µM) | 4 (≈ 4.36 µM) | 128 (≈ 139 µM) | 0.25 (≈ 0.272 µM) | 32 (≈ 34.9 µM) | 1 (≈ 1.09 µM) | 32 (≈ 34.9 µM) |
| CCCCNC(=O)CCCNC(=O)O[C@H]1[C@H](C)O[C@@H](O[C@H]2[C@H](C)[C@@H](O[C@@H]3O[C@H](C)C[C@H](N(C)C)[C@H]3O)[C@](C)(OC)C[C@@H](C)C(=O)[C@H](C)[C@@H](O)[C@](C)(O)[C@@H](CC)OC(=O)[C@@H]2C)C[C@@]1(C)OC | 0.03 (≈ 0.0322 µM) | 128 (≈ 137 µM) | 8 (≈ 8.58 µM) | 128 (≈ 137 µM) | 0.25 (≈ 0.268 µM) | 8 (≈ 8.58 µM) | 0.5 (≈ 0.536 µM) | 16 (≈ 17.2 µM) |
| CCCCCNC(=O)CCCNC(=O)O[C@H]1[C@H](C)O[C@@H](O[C@H]2[C@H](C)[C@@H](O[C@@H]3O[C@H](C)C[C@H](N(C)C)[C@H]3O)[C@](C)(OC)C[C@@H](C)C(=O)[C@H](C)[C@@H](O)[C@](C)(O)[C@@H](CC)OC(=O)[C@@H]2C)C[C@@]1(C)OC | 0.03 (≈ 0.0317 µM) | 8 (≈ 8.45 µM) | 2 (≈ 2.11 µM) | 32 (≈ 33.8 µM) | 0.5 (≈ 0.528 µM) | 16 (≈ 16.9 µM) | 0.5 (≈ 0.528 µM) | 16 (≈ 16.9 µM) |
| CC[C@H]1OC(=O)[C@H](C)[C@@H](O[C@H]2C[C@@](C)(OC)[C@@H](OC(=O)NCCCCCC(=O)NCc3ccccc3)[C@H](C)O2)[C@H](C)[C@@H](O[C@@H]2O[C@H](C)C[C@H](N(C)C)[C@H]2O)[C@](C)(OC)C[C@@H](C)C(=O)[C@H](C)[C@@H](O)[C@]1(C)O | 0.03 (≈ 0.0302 µM) | 64 (≈ 64.4 µM) | 2 (≈ 2.01 µM) | 64 (≈ 64.4 µM) | 0.5 (≈ 0.503 µM) | 8 (≈ 8.05 µM) | 0.12 (≈ 0.121 µM) | 0.25 (≈ 0.251 µM) |
| CC[C@H]1OC(=O)[C@H](C)[C@@H](O[C@H]2C[C@@](C)(OC)[C@@H](OC(=O)NCCCCCC(=O)NCc3ccc(F)cc3)[C@H](C)O2)[C@H](C)[C@@H](O[C@@H]2O[C@H](C)C[C@H](N(C)C)[C@H]2O)[C@](C)(OC)C[C@@H](C)C(=O)[C@H](C)[C@@H](O)[C@]1(C)O | 0.03 (≈ 0.0296 µM) | 2 (≈ 1.98 µM) | 0.5 (≈ 0.494 µM) | 4 (≈ 3.95 µM) | 0.25 (≈ 0.247 µM) | 32 (≈ 31.6 µM) | 0.03 (≈ 0.0296 µM) | 0.25 (≈ 0.247 µM) |
| CC[C@H]1OC(=O)[C@H](C)[C@@H](O[C@H]2C[C@@](C)(OC)[C@@H](OC(=O)NCCCCCC(=O)NCc3ccc(OC)cc3)[C@H](C)O2)[C@H](C)[C@@H](O[C@@H]2O[C@H](C)C[C@H](N(C)C)[C@H]2O)[C@](C)(OC)C[C@@H](C)C(=O)[C@H](C)[C@@H](O)[C@]1(C)O | 0.03 (≈ 0.0293 µM) | 64 (≈ 62.5 µM) | 0.5 (≈ 0.488 µM) | 64 (≈ 62.5 µM) | 0.12 (≈ 0.117 µM) | 1 (≈ 0.976 µM) | 0.12 (≈ 0.117 µM) | 32 (≈ 31.2 µM) |
| CC[C@H]1OC(=O)[C@H](C)[C@@H](O[C@H]2C[C@@](C)(OC)[C@@H](OC(=O)NCCCCCC(=O)NCCc3ccc(O)cc3)[C@H](C)O2)[C@H](C)[C@@H](O[C@@H]2O[C@H](C)C[C@H](N(C)C)[C@H]2O)[C@](C)(OC)C[C@@H](C)C(=O)[C@H](C)[C@@H](O)[C@]1(C)O | 0.06 (≈ 0.0586 µM) | 64 (≈ 62.5 µM) | 8 (≈ 7.81 µM) | 64 (≈ 62.5 µM) | 0.25 (≈ 0.244 µM) | 1 (≈ 0.976 µM) | 0.5 (≈ 0.488 µM) | 64 (≈ 62.5 µM) |
| CC[C@H]1OC(=O)[C@H](C)[C@@H](O[C@H]2C[C@@](C)(OC)[C@@H](OC(=O)NCCCCCC(=O)NCCc3ccccc3Cl)[C@H](C)O2)[C@H](C)[C@@H](O[C@@H]2O[C@H](C)C[C@H](N(C)C)[C@H]2O)[C@](C)(OC)C[C@@H](C)C(=O)[C@H](C)[C@@H](O)[C@]1(C)O | 0.03 (≈ 0.0288 µM) | 64 (≈ 61.4 µM) | 1 (≈ 0.959 µM) | 32 (≈ 30.7 µM) | 0.25 (≈ 0.24 µM) | 0.5 (≈ 0.48 µM) | 0.06 (≈ 0.0575 µM) | 64 (≈ 61.4 µM) |
| CC[C@H]1OC(=O)[C@H](C)[C@@H](O[C@H]2C[C@@](C)(OC)[C@@H](OC(=O)NCCCCCC(=O)NC3CCCCC3)[C@H](C)O2)[C@H](C)[C@@H](O[C@@H]2O[C@H](C)C[C@H](N(C)C)[C@H]2O)[C@](C)(OC)C[C@@H](C)C(=O)[C@H](C)[C@@H](O)[C@]1(C)O | 0.03 (≈ 0.0304 µM) | 128 (≈ 130 µM) | 1 (≈ 1.01 µM) | 128 (≈ 130 µM) | 0.25 (≈ 0.253 µM) | 1 (≈ 1.01 µM) | 0.12 (≈ 0.122 µM) | 32 (≈ 32.4 µM) |
| CC[C@H]1OC(=O)[C@H](C)[C@@H](O[C@H]2C[C@@](C)(OC)[C@@H](OC(=O)NCCCCCC(=O)NC(C)C)[C@H](C)O2)[C@H](C)[C@@H](O[C@@H]2O[C@H](C)C[C@H](N(C)C)[C@H]2O)[C@](C)(OC)C[C@@H](C)C(=O)[C@H](C)[C@@H](O)[C@]1(C)O | 0.06 (≈ 0.0634 µM) | 128 (≈ 135 µM) | 8 (≈ 8.45 µM) | 128 (≈ 135 µM) | 0.25 (≈ 0.264 µM) | 1 (≈ 1.06 µM) | 0.12 (≈ 0.127 µM) | 32 (≈ 33.8 µM) |
| CCCNC(=O)CCCCCNC(=O)O[C@H]1[C@H](C)O[C@@H](O[C@H]2[C@H](C)[C@@H](O[C@@H]3O[C@H](C)C[C@H](N(C)C)[C@H]3O)[C@](C)(OC)C[C@@H](C)C(=O)[C@H](C)[C@@H](O)[C@](C)(O)[C@@H](CC)OC(=O)[C@@H]2C)C[C@@]1(C)OC | 0.03 (≈ 0.0317 µM) | 128 (≈ 135 µM) | 4 (≈ 4.23 µM) | 128 (≈ 135 µM) | 0.5 (≈ 0.528 µM) | 2 (≈ 2.11 µM) | 0.03 (≈ 0.0317 µM) | 16 (≈ 16.9 µM) |
| CCCCNC(=O)CCCCCNC(=O)O[C@H]1[C@H](C)O[C@@H](O[C@H]2[C@H](C)[C@@H](O[C@@H]3O[C@H](C)C[C@H](N(C)C)[C@H]3O)[C@](C)(OC)C[C@@H](C)C(=O)[C@H](C)[C@@H](O)[C@](C)(O)[C@@H](CC)OC(=O)[C@@H]2C)C[C@@]1(C)OC | 0.06 (≈ 0.0625 µM) | 128 (≈ 133 µM) | 1 (≈ 1.04 µM) | 128 (≈ 133 µM) | 0.25 (≈ 0.26 µM) | 8 (≈ 8.33 µM) | 0.25 (≈ 0.26 µM) | 8 (≈ 8.33 µM) |
| CCCCCNC(=O)CCCCCNC(=O)O[C@H]1[C@H](C)O[C@@H](O[C@H]2[C@H](C)[C@@H](O[C@@H]3O[C@H](C)C[C@H](N(C)C)[C@H]3O)[C@](C)(OC)C[C@@H](C)C(=O)[C@H](C)[C@@H](O)[C@](C)(O)[C@@H](CC)OC(=O)[C@@H]2C)C[C@@]1(C)OC | 0.03 (≈ 0.0308 µM) | 128 (≈ 131 µM) | 4 (≈ 4.11 µM) | 128 (≈ 131 µM) | 0.5 (≈ 0.513 µM) | 8 (≈ 8.21 µM) | 0.25 (≈ 0.257 µM) | 16 (≈ 16.4 µM) |
| CC[C@H]1OC(=O)[C@H](C)[C@@H](O[C@H]2C[C@@](C)(OC)[C@@H](O)[C@H](C)O2)[C@H](C)[C@@H](O[C@@H]2O[C@H](C)C[C@H](N(C)C)[C@H]2O)[C@](C)(O)C[C@@H](C)CN(C)[C@H](C)[C@@H](O)[C@]1(C)O [AZITHROMYCIN] | 0.03 (≈ 0.0401 µM) | 128 (≈ 171 µM) | 4 (≈ 5.34 µM) | 256 (≈ 342 µM) | 0.25 (≈ 0.334 µM) | 0.12 (≈ 0.16 µM) | 0.03 (≈ 0.0401 µM) | 8 (≈ 10.7 µM) |
| CC[C@H]1OC(=O)[C@H](C)[C@@H](O[C@H]2C[C@@](C)(OC)[C@@H](O)[C@H](C)O2)[C@H](C)[C@@H](O[C@@H]2O[C@H](C)C[C@H](N(C)C)[C@H]2O)[C@](C)(OC)C[C@@H](C)C(=O)[C@H](C)[C@@H](O)[C@]1(C)O [CLARITHROMYCIN] | 0.03 (≈ 0.0401 µM) | 64 (≈ 85.6 µM) | 4 (≈ 5.35 µM) | 128 (≈ 171 µM) | 0.12 (≈ 0.16 µM) | 0.03 (≈ 0.0401 µM) | 0.03 (≈ 0.0401 µM) | 4 (≈ 5.35 µM) |
| CC[C@H]1OC(=O)[C@H](C)[C@@H](O[C@H]2C[C@@](C)(OC)[C@@H](O)[C@H](C)O2)[C@H](C)[C@@H](O[C@@H]2O[C@H](C)C[C@H](N(C)C)[C@H]2O)[C@](C)(O)C[C@@H](C)C(=O)[C@H](C)[C@@H](O)[C@]1(C)O [ERYTHROMYCIN] | 0.03 (≈ 0.0409 µM) | 128 (≈ 174 µM) | 8 (≈ 10.9 µM) | 256 (≈ 349 µM) | 0.25 (≈ 0.341 µM) | 0.25 (≈ 0.341 µM) | 0.03 (≈ 0.0409 µM) | 4 (≈ 5.45 µM) |
